Assay results reported in patent publication US20220363686A1 (AiCuris GmbH & Co. KG, priority 2018, published 2022).

Assays:
[1] = target: HBV core protein (C-terminal truncated core protein containing 149 amino acids of the N-terminal assembly domain) (UniProt P03146); test: Biochemical capsid assembly assay (fluorescence quenching); design: rows headed: Assembly Activity; other: BODIPY-FL labelled core protein, assembly started with NaCl, read after 6 min; conditions: read-out: Assembly Activity; BODIPY-FL labelled core protein, assembly started with NaCl, read after 6 min
Method: The screening for assembly effector activity was done based on a fluorescence quenching assay published by Zotnick et al. (2007). The C-terminal truncated core protein containing 149 amino acids of the N-terminal assembly domain fused to a unique cysteine residue at position 150 and was expressed in E. coli using the pET expression system (Merck Chemicals, Darmstadt). Purification of core dimer protein was performed using a sequence of size exclusion chromatography steps. In brief, the cell pellet from 1 L BL21 (DE3) Rosetta2 culture expressing the coding sequence of core protein cloned NdeI/XhoI into expression plasmid pET21b was treated for 1 h on ice with a native lysis buffer (Qproteome Bacterial Protein Prep Kit; Qiagen, Hilden). After a centrifugation step the supernatant was precipitated during 2 h stirring on ice with 0.23 g/ml of solid ammonium sulfate. Following further centrifugation the resulting pellet was resolved in buffer A (100 mM Tris, pH 7.5; 100 mM NaCl; 2 mM DTT) and was subsequently loaded onto a buffer A equilibrated CaptoCore 700 column (GE HealthCare, Frankfurt). The column flow through containing the assembled HBV capsid was dialyzed against buffer N (50 mM NaHCO3 pH 9.6; 5 mM DTT) before urea was added to a final concentration of 3M to dissociate the capsid into core dimers for 1.5 h on ice. The protein solution was then loaded onto a IL Sephacryl S300 column. After elution with buffer N core dimer containing fractions were identified by SDS-PAGE and subsequently pooled and dialyzed against 50 mM HEPES pH 7.5; 5 mM DTT. To improve the assembly capacity of the purified core dimers a second round of assembly and disassembly starting with the addition of 5 M NaCl and including the size exclusion chromatography steps described above was performed. From the last chromatography step core dimer containing fractions were pooled and stored in aliquots at concentrations between 1.5 to 2.0 mg/ml at −80° C.
Immediately before labelling the core protein was reduced by adding freshly prepared DTT in a final concentration of 20 mM. After 40 min incubation on ice storage buffer and DTT was removed using a Sephadex G-25 column (GE HealthCare, Frankfurt) and 50 mM HEPES, pH 7.5. For labelling 1.6 mg/ml core protein was incubated at 4° C. and darkness overnight with BODIPY-FL maleimide (Invitrogen, Karlsruhe) in a final concentration of 1 mM. After labelling the free dye was removed by an additional desalting step using a Sephadex G-25 column. Labelled core dimers were stored in aliquots at 4° C. In the dimeric state the fluorescence signal of the labelled core protein is high and is quenched during the assembly of the core dimers to high molecular capsid structures. The screening assay was performed in black 384 well microtiter plates in a total assay volume of 10 μl using 50 mM HEPES pH 7.5 and 1.0 to 2.0 μM labelled core protein. Each screening compound was added in 8 different concentrations using a 0.5 log-unit serial dilution starting at a final concentration of 100 μM, 31.6 μM or 10 μM, In any case the DMSO concentration over the entire microtiter plate was 0.5%. The assembly reaction was started by the injection of NaCl to a final concentration of […] which induces the assembly process to approximately 25% of the maximal quenched signal. 6 min after starting the reaction the fluorescence signal was measured using a Clariostar plate reader (BMG Labtech, Ortenberg) with an excitation of 477 nm and an emission of 525 nm. As 100% and 0% assembly control HEPES buffer containing 2.5 M and 0 M NaCl was used. Experiments were performed thrice in triplicates. EC50 values were calculated by non-linear regression analysis using the Graph Pad Prism 6 software (GraphPad Software, La Jolla, USA).

HBV = test: Determination of HBV DNA from the supernatants of HepAD38 cells (anti-HBV activity); type: cell-based, hepatitis B virus; conditions: Hepatitis B virus, HePAD38, 144 h, HBV DNA in HepAD38 supernatant, day 6, qPCR; read-out: Cell Activity
Method: The anti-HBV activity was analysed in the stable transfected cell line HepAD38, which has been described to secrete high levels of HBV virion particles (Ladner et al., 1997). In brief, HepAD38 cells were cultured at 37° C. at 5% CO2 and 95% humidity in 200 μl maintenance medium, which was Dulbecco's modified Eagle's medium/Nutrient Mixture F-12 (Gibco, Karlsruhe), 10% fetal bovine serum (PAN Biotech Aidenbach) supplemented with 50 μg/ml penicillin/streptomycin (Gibco, Karlsruhe), 2 mM L-glutamine (PAN Biotech, Aidenbach), 400 μg/ml G418 (AppliChem, Darmstadt) and 0.3 μg/ml tetracycline. Cells were subcultured once a week in a 1:5 ratio, but were usually not passaged more than ten times. For the assay 60,000 cells were seeded in maintenance medium without any tetracycline into each well of a 96-well plate and treated with serial half-log dilutions of test compound. To minimize edge effects the outer 36 wells of the plate were not used but were filled with assay medium. On each assay plate six wells for the virus control (untreated HepAD38 cells) and six wells for the cell control (HepAD38 cells treated with 0.3 μg/ml tetracycline) were allocated, respectively. In addition, one plate set with reference inhibitors like BAY 41-4109, entecavir, and lamivudine instead of screening compounds were prepared in each experiment. In general, experiments were performed thrice in triplicates. At day 6 HBV DNA from 100 μl filtrated cell culture supernatant (AcroPrep Advance 96 Filter Plate, […] Supor membran, PALL GmbH, Dreieich) was automatically purified on the MagNa Pure LC instrument using the MagNA Pure 96 DNA and Viral NA Small Volume Kit (Roche Diagnostics, Mannheim) according to the instructions of the manufacturer. EC50 values were calculated from relative copy numbers of HBV DNA In brief, 5 μl of the 100 μl eluate containing HBV DNA were subjected to PCR LC480 Probes Master Kit (Roche) together with 1 μM antisense primer […], 0.5 μM sense primer […], 0.3 μM hybprobes […]-FL and LC640-[…]-PH (TIBMolBiol, Berlin) to a final volume of 12.5 μl. The PCR was performed on the Light Cycler 480 real time system (Roche Diagnostics, Mannheim) using the following protocol: Pre-incubation for 1 min at 95° C., amplification: 40 cycles×(10 sec at 95° C., 50 sec at 60° C., 1 sec at 70° C.), cooling for 10 sec at 40° C. Viral load was quantitated against known standards using HBV plasmid DNA of pCH-9/3091 (Nassal et al., 1990, Cell 63: 1357-1363) and the LightCycler 480 SW 1.5 software (Roche Diagnostics, Mannheim) and ECso values were calculated using non-linear regression with GraphPad Prism 6 (GraphPad Software Inc., La Jolla, USA).

[2] = Cell viability assay (AlamarBlue); conditions: human, HepAD38 cells
Method: Using the AlamarBlue viability assay cytotoxicity was evaluated in HepAD38 cells in the presence of 0.3 μg/ml tetracycline, which blocks the expression of the HBV genome. Assay condition and plate layout were in analogy to the anti-HBV assay, however other controls were used. On each assay plate six wells containing untreated HepAD38 cells were used as the 100% viability control, and six wells filled with assay medium only were used as 0% viability control. In addition, a geometric concentration series of cycloheximide starting at 60 μM final assay concentration was used as positive control in each experiment. After six days incubation period Alamar Blue Presto cell viability reagent (ThermoFisher, Dreieich) was added in 1/11 dilution to each well of the assay plate. After an incubation for 30 to 45 min at 37° C. the fluorescence signal, which is proportional to the number of living cells, was read using a Tecan Spectrafluor Plus plate reader with an excitation filter 550 nm and emission filter 595 nm, respectively. Data were normalized into percentages of the untreated control (100% viability) and assay medium (0% viability) before CC50 values were calculated using non-linear regression and the GraphPad Prism 6.0 (GraphPad Software, La Jolla, USA). Mean EC50 and CC50 values were used to calculate the selectivity index (SI=CC50/EC50) for each test compound.

HBV core protein (C-terminal truncated core protein containing 149 amino acids of the N-terminal assembly domain), sequence (P03146 whole entry, the tested form may be a part): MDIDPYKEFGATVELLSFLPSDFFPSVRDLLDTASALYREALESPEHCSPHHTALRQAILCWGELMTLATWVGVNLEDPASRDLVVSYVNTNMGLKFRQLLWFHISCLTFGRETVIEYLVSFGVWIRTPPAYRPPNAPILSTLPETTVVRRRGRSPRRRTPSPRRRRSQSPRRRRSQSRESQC

CC1Cn2ncc(C(=O)N(C)C3CC3)c2CN1C(=O)c1cc2ccccc2[nH]1 (racemic) [Example 2, N-cyclopropyl-5-(1H-indole-2-carbonyl)-N,6-dimethyl-4H,5H,6H,7H-pyrazolo[1,5-a]pyrazine-3-carboxamide]
IC50 [1]: < 5 µM
EC50 (HBV): < 1 µM
CC50 at 6 days [2]: > 10 µM

CC1Cn2ncc(C(=O)NC3(COC(F)F)CC3)c2CN1C(=O)c1cc2ccccc2[nH]1 (racemic) [Example 130, N-{1-[(difluoromethoxy)methyl]cyclopropyl}-5-(1H-indole-2-carbonyl)-6-methyl-4H,5H,6H,7H-pyrazolo[1,5-a]pyrazine-3-carboxamide]
IC50 [1]: < 5 µM
EC50 (HBV): < 1 µM
CC50 at 6 days [2]: > 10 µM

COCC1(N(C)C(=O)c2cnn3c2CN(C(=O)c2cc4ccccc4[nH]2)C(C)C3)CC1 (single isomer, unassigned) [Example 17, 5-(1H-indole-2-carbonyl)-N-[1-(methoxymethyl)cyclopropyl]-N,6-dimethyl-4H,5H,6H,7H-pyrazolo[1,5-a]pyrazine-3-carboxamide]
IC50 [1]: 5 to 10 µM
EC50 (HBV): < 1 µM
CC50 at 6 days [2]: > 10 µM

CC1Cn2ncc(C(=O)N(C)C3CC3)c2CN1C(=O)c1cc2ccccc2[nH]1 (single isomer, unassigned) [Example 18, N-cyclopropyl-5-(1H-indole-2-carbonyl)-N,6-dimethyl-4H,5H,6H,7H-pyrazolo[1,5-a]pyrazine-3-carboxamide]
IC50 [1]: < 100 µM
EC50 (HBV): 1 to 10 µM
CC50 at 6 days [2]: > 10 µM

CC1Cn2ncc(C(=O)NC3(COC(F)F)CC3)c2CN1C(=O)c1cc2ccccc2[nH]1 (single isomer, unassigned) [Example 131, N-{1-[(difluoromethoxy)methyl]cyclopropyl}-5-(1H-indole-2-carbonyl)-6-methyl-4H,5H,6H,7H-pyrazolo[1,5-a]pyrazine-3-carboxamide]
IC50 [1]: < 5 µM
EC50 (HBV): < 1 µM
CC50 at 6 days [2]: > 10 µM

COCC1(N(C)C(=O)c2cnn3c2CN(C(=O)c2cc4ccccc4[nH]2)C(C)C3)CC1 (stereo not drawn) [Example 1, 5-(1H-indole-2-carbonyl)-N-[1-(methoxymethyl)cyclopropyl]-N,6-dimethyl-4H,5H,6H,7H-pyrazolo[1,5-a]pyrazine-3-carboxamide]
IC50 [1]: < 5 µM
EC50 (HBV): < 1 µM
CC50 at 6 days [2]: > 10 µM

O=C(c1cc2c(F)c(F)ccc2[nH]1)N1CCn2ncc(C3CCC3)c2C1 [Example 3, 2-{3-cyclobutyl-4H,5H,6H,7H-pyrazolo[1,5-a]pyrazine-5-carbonyl}-4,5-difluoro-1H-indole]
IC50 [1]: < 5 µM
EC50 (HBV): < 1 µM
CC50 at 6 days [2]: > 10 µM

Cc1cc(F)cc2[nH]c(C(=O)N3CCn4ncc(C5CCC5)c4C3)cc12 [Example 4, 2-{3-cyclobutyl-4H,5H,6H,7H-pyrazolo[1,5-a]pyrazine-5-carbonyl}-6-fluoro-4-methyl-1H-indole]
IC50 [1]: < 5 µM
EC50 (HBV): < 1 µM
CC50 at 6 days [2]: > 10 µM

O=C(c1cc2c(F)cc(F)cc2[nH]1)N1CCn2ncc(C3CCC3)c2C1 [Example 5, 2-{3-cyclobutyl-4H,5H,6H,7H-pyrazolo[1,5-a]pyrazine-5-carbonyl}-4,6-difluoro-1H-indole]
IC50 [1]: < 5 µM
EC50 (HBV): < 1 µM
CC50 at 6 days [2]: > 10 µM

O=C(c1cc2ccccc2[nH]1)N1CCn2ncc(C3CCC3)c2C1 [Example 6, 2-{3-cyclobutyl-4H,5H,6H,7H-pyrazolo[1,5-a]pyrazine-5-carbonyl}-1H-indole]
IC50 [1]: < 5 µM
EC50 (HBV): < 1 µM
CC50 at 6 days [2]: > 10 µM

COCC1(N(C)C(=O)c2cnn3c2CN(C(=O)c2cc4c(Cl)cccc4[nH]2)CC3)CC1 [Example 7, 5-(4-chloro-1H-indole-2-carbonyl)-N-[1-(methoxymethyl)cyclopropyl]-N-methyl-4H,5H,6H,7H-pyrazolo[1,5-a]pyrazine-3-carboxamide]
IC50 [1]: < 5 µM
EC50 (HBV): < 1 µM
CC50 at 6 days [2]: > 10 µM

COCC1(N(C)C(=O)c2cnn3c2CN(C(=O)c2cc4c(F)cc(F)cc4[nH]2)CC3)CC1 [Example 8, 5-(4,6-difluoro-1H-indole-2-carbonyl)-N-[1-(methoxymethyl)cyclopropyl]-N-methyl-4H,5H,6H,7H-pyrazolo[1,5-a]pyrazine-3-carboxamide]
IC50 [1]: < 5 µM
EC50 (HBV): < 1 µM
CC50 at 6 days [2]: > 10 µM

O=C(c1cc2ccccc2[nH]1)N1CCn2ncc(S(=O)(=O)N3CCC(F)(F)CC3)c2C1 [Example 34, 2-{3-[(4,4-difluoropiperidin-1-yl)sulfonyl]-4H,5H,6H,7H-pyrazolo[1,5-a]pyrazine-5-carbonyl}-1H-indole]
EC50 (HBV): < 1 µM
CC50 at 6 days [2]: > 10 µM

O=C(c1cc2c(Cl)cccc2[nH]1)N1CCn2ncc(C(=O)N3CCC(F)(F)C3)c2C1 [Example 99, 4-chloro-2-[3-(3,3-difluoropyrrolidine-1-carbonyl)-4H,5H,6H,7H-pyrazolo[1,5-a]pyrazine-5-carbonyl]-1H-indole]
EC50 (HBV): < 1 µM
CC50 at 6 days [2]: > 10 µM

O=C(c1cc2c(Cl)cc(F)cc2[nH]1)N1CCn2ncc(C(=O)N3CCC(F)(F)C3)c2C1 [Example 140, 4-chloro-2-[3-(3,3-difluoropyrrolidine-1-carbonyl)-4H,5H,6H,7H-pyrazolo[1,5-a]pyrazine-5-carbonyl]-6-fluoro-1H-indole]
EC50 (HBV): < 1 µM
CC50 at 6 days [2]: > 10 µM
